Test results reported in patent publication US5405598A, “Sensitizing agents for use in boron neutron capture therapy” (priority 1992, dated 1995).

Assays:
malignant cells = conditions: under both euoxic and hypoxic conditions; cited from earlier work
[1] = mice, radiolabeled; cited from earlier work
[2] = mice; cited from earlier work
HIV-1 (strain LAV) = assay: Anti-HIV-1 activity in human PBM cells; format: cell-based; conditions: On day 6, in human PBM cells, without neutrons
Description: Thus, these compounds have antiviral activity in the absence of neutrons.
(§1) Biological methods are described in Schinazi et al, Antimicrob. Agents Chemother., vol. 34, pp. 1061-1067, (1990).

hamster V-79 cells = conditions: when irradiated with low energy neutrons; cited from earlier work
[3] = test system: human immunodeficiency viruses (HIV); conditions: racemic BCH-189; FTC; cited from earlier work
Hepatitis B virus (HBV) = conditions: racemic BCH-189; FTC; cited from earlier work
CEM = assay: Cytotoxicity in CEM cells; format: cell-based; conditions: On day 6; read-out: CEM IC50 (cytotoxicity)
Description: as §1

Vero = assay: Cytotoxicity in Vero cells; format: cell-based; conditions: On day 3; read-out: Vero IC50 (cytotoxicity)
Description: as §1

PBM = assay: Cytotoxicity in PBM cells; format: cell-based, human; conditions: On day 6; read-out: PBM IC50 (cytotoxicity)
Description: as §1

**Q.** Which results are given for `Cc1cc(OP(=O)(O)O)c2cc(I)ccc2c1OP(=O)(O)O` [6-I-MNDP, 6-iodo-2-methyl-1,4-naphthoquinol bis(diammonium phosphate)]?
**A.** uptake into malignant cells relative to normal cells (malignant cells): 15-20 fold; uptake in tumor tissues [1]: high uptake; uptake into critical radiosensitive tissues, such as bone-marrow, colon, and lung [1]: low uptake; metabolic stability of the halogen-carbon bond [2]: metabolically stable

**Q.** Which EC50 (HIV-1 (strain LAV)) does the source give for “5'-O-Butyryl-5-carboranyl-3'-thia-2',3'-dideoxyuridine” here?
**A.** 6.4 µM

**Q.** Which “destruction of hamster V-79 cells” value (hamster V-79 cells) does the source give for `O=c1[nH]c(=O)n([C@H]2C[C@H](O)[C@@H](CO)O2)cc1B(O)O` [DBDU, 5-dihydroxyboryl-2'-deoxyuridine] here?
**A.** destroy hamster V-79 cells

**Q.** Which “viability as anti-HIV agent” value [3] does the source give for `Nc1ccn([C@H]2CS[C@@H](CO)O2)c(=O)n1` (racemic) [BCH-189, 2', 3'-dideoxy-3'-thiacytidine] here?
**A.** demonstrated

**Q.** And the “viability as anti-HBV agent” value (Hepatitis B virus (HBV))?
**A.** demonstrated

**Q.** What does the source list for `Nc1nc(=O)n([C@H]2CS[C@@H](CO)O2)cc1F` [FTC, 2', 3'-dideoxy-5-fluoro-3'-thiacytidine]?
**A.** viability as anti-HIV agent [3]: demonstrated; viability as anti-HBV agent (Hepatitis B virus (HBV)): demonstrated

**Q.** What does the source list for “5-Carboranyl-2',3'-dideoxy-3'-thiauridine”?
**A.** CC50 (CEM): 37.9 µM; CC50 (Vero): 34.2 µM; CC50 (PBM): > 100 µM; EC50 (HIV-1 (strain LAV)): 12.1 µM
